Measured values reported in patent US20200155526A1, “TARGETING LYSINE DEMETHYLASES (KDMS) AS A THERAPEUTIC STRATEGY FOR DIFFUSE LARGE B-CELL LYMPHOMA” (THE CHILDREN'S MEDICAL CENTER CORPORATION, priority 2017, published 2020).

Key:
OCI-Ly1 = OCI-Ly1 sensitivity assay (CTG viability); assay type: cell-based, human; details: for OCI-Ly1 cell viability, Jumonji-inhibitors: OCI-Ly1, range tested, FIG. 5
Experimental: (§1) For the Cell Titer Glo assays (CTG), between 3000-10,000 cells were plated in a 96 well plate (in triplicates). The cells were allowed to settle for 24 hours before either small molecule(s) or DMSO was added at indicated concentrations. The treatment was performed for indicated days (preferably 2 days for a “snap-shot” experiments). CTG signal was used to assess viability after 2 days according to manufacturer's protocol (Promega Corporation; Madison, Wis.).
When performing the comparative test of GSK126 and JIB04, daily readings were taken using the manufacturer's protocol for CTG signal after day 2 (for JIB04), and after day 5 (for GSK126).
For OCI-Ly1 sensitivity assay, OCI-Ly1 cells were grown at a density of 1-3×10^6 cells/mL and 3000-10,000 cells were plated in a 96-well plate (in triplicates). The cells were allowed to settle for 24 hours before either the indicated small molecule(s) or DMSO was added at indicated concentrations. CTG signal was used to assess viability after 2 days according to manufacturer's protocol (Promega Corporation; Madison, Wis.). Small molecules used in each experiment are stated in the respective figures along with their concentrations. Results are shown in FIGS. 10, 11, 13, 14, 15, 16 and 22.

[1] = system: Ikaros family members (IKZF1, IKZF3); test: Immunoblotting of Ikaros family members and BCR signaling components; assay type: cell-based; details: JIB04 100 nM or 500 nM, FIG. 20
Experimental: Effect of JIB-04 on Ikaros family members and proximal components of BCR signaling pathway was assayed as follows: One million cells growing under indicated conditions (DMSO or JIB04 treatment; 100 nM or 500 nM) were pelleted by centrifugation at 1000 rpm for 5 min, and then resuspended in RIPA buffer with protease and phosphatase inhibitors. The cell suspension was left on ice for 20 min, and then sonicated using Diagenode water-bath sonicator (15 s. on; 30 s. off, for 15 cycles at max power). After sonication, cell extract was spun at 12000 rpm for 20 min, and the supernatant was collected for immunoblotting. Immunoblotting was performed using standard methods, and the blots were probed using antibodies recognizing indicated proteins.

OCI-Ly1 cell lines = test: Transcriptomics (RNA-seq, GSEA) of JIB04-treated cells; assay type: cell-based, human
Experimental: (§2) Three independent cultures of OCI-Ly1 cell lines were grown till the cultures achieved the cell numbers of approximately 1-1.5*10^6 cells/ml, and then cells were treated with either DMSO or two different JIB04 concentrations (150 nM and 500 nM). RNA was isolated using Trizol method, followed by library preparation using NEBUltraII kit (New England Biolabs; Ipswich, Mass.). After high throughput sequencing of the libraries, FastQc was used for filtering and quality control of the reads followed by read alignment to hg19 assembly of the human genome. Reads were counted by TopHat, differential gene expression analysis was performed in Rstudio. GSEA was performed using the desktop client from the Broad Institute, and the GSEA output was visualized using Rstudio.

PARP = test: Production of cleaved PARP; assay type: cell-based; details: FIG. 4B
Ly1 cells [2] = test: In vivo Ly1 model, Kaplan Meier survival; details: mice, compared to vehicle treated mice, FIG. 19
Text: Mice administered Ly1 cells without the luciferase reporter were monitored post administration, and fraction surviving was plotted (FIG. 19) using the Kaplan Meier Survival Analysis of Graphpad Prism.

canonical Wnt signaling = test: Transcriptomics / ChIP-seq GSEA of Wnt signaling; assay type: cell-based; details: FIGS. 21A-21C
Experimental: as §2
Cells were fixed with 1% formaldehyde for 10 minutes at room temperature before termination with 0.125 M glycine. Cells were then lysed in ChIP buffer (0.6% SDS, 10 mM EDTA, and 50 mM Tris-HCl, pH 8.1) and cross-linked chromatin was sonicated to obtain DNA fragments of 300-800 bp. […] Libraries were quantified by Qubit (Invitrogen), and sequenced using a HiSeq 2000 (Illumina) to generate 50 bp single end reads.

SUDHL5 = test: Cell Titer Glo (CTG) viability, JIB04 dose response; assay type: cell-based; details: Homo sapiens, SU-DHL-5, 48 h; SUDHL5 (DLBCL), 2 days treatment, FIG. 2
Experimental: as §1

MV4-11 = test: as above; assay type: cell-based; details: Homo sapiens, 48 h; MV4-11 (leukemia), 2 days treatment, FIG. 2; read-out: effective EC50
Experimental: as §1

Toledo = test: as above; assay type: cell-based; details: Homo sapiens, 48 h; Toledo (DLBCL), 2 days treatment, FIG. 2
Experimental: as §1

DB = test: as above; assay type: cell-based; details: Homo sapiens, 48 h; DB (DLBCL), 2 days treatment, FIG. 2
Experimental: as §1

HL-60 = test: as above; assay type: cell-based; details: Homo sapiens, 48 h; HL-60 (leukemia), 2 days treatment, FIG. 2; read-out: effective EC50
Experimental: as §1

Farage = test: as above; assay type: cell-based; details: 48 h; Farage (DLBCL), 2 days treatment, FIG. 2
Experimental: as §1

Jurkat = test: as above; assay type: cell-based; details: Homo sapiens, 48 h; Jurkat (leukemia), 2 days treatment, FIG. 2; read-out: effective EC50
Experimental: as §1

THP-1 = test: as above; assay type: cell-based; details: Homo sapiens, 48 h; THP-1 (leukemia), 2 days treatment, FIG. 2; read-out: effective EC50
Experimental: as §1

lymphoma cell lines = test: Annexin V staining apoptosis assay; assay type: cell-based; details: FIG. 4A
Experimental: APC-Annexin V was obtained from BD Pharmingen (Franklin Lakes, N.J.), and Annexin V staining was performed as described by the manufacturer.

DLBCL cell lines = test: Sensitivity of DLBCL cell lines (CTG viability); assay type: cell-based
Experimental: For the Cell Titer Glo assays (CTG), between 3000-10,000 cells were plated in a 96 well plate (in triplicates). The cells were allowed to settle for 24 hours before either small molecule(s) or DMSO was added at indicated concentrations. The treatment was performed for indicated days (preferably 2 days for a “snap-shot” experiments). CTG signal was used to assess viability after 2 days according to manufacturer's protocol (Promega Corporation; Madison, Wis.). For OCI-Ly1 sensitivity assay, OCI-Ly1 cells were grown at a density of 1-3×10^6 cells/mL and 3000-10,000 cells were plated in a 96-well plate (in triplicates). The cells were allowed to settle for 24 hours before either the indicated small molecule(s) or DMSO was added at indicated concentrations. CTG signal was used to assess viability after 2 days according to manufacturer's protocol (Promega Corporation; Madison, Wis.). Small molecules used in each experiment are stated in the respective figures along with their concentrations. Results are shown in FIGS. 10, 11, 13, 14, 15, 16 and 22.

Ly1 cells [3] = test: In vivo Ly1 luciferase model, bioluminescence imaging; details: NSG mice, 30 mg/kg, 3 times weekly, intra-peritoneal, 2 weeks post treatment, FIGS. 18A-18B
Experimental: For in vivo studies, Ly1 cells, with a luciferase reporter or […], were administered to Nod/SCID− mice (NSG) (6-8 weeks) were used for tail vein injection. Mice administered the Ly1 cells comprising the luciferase reporter were imaged every week after injection using the IVIS Spectrum In Vivo Imaging System (Perkin Elmer). […] JIB04 was administered three times a week, for two weeks, via intra-peritoneal injection in a mix of 90% sesame oil and 10% DMSO mix (vehicle). Mice were imaged each week and images from pre-treatment and 2-weeks after start of treatment with 30 mg/kg (3× a week) JIB04 are shown in FIG. 18A (pre-treatment) and FIG. 18B (post-treatment).

[4] = Cell cycle analysis by propidium iodide staining; assay type: cell-based, human; details: different dosage and times, FIG. 7C
Text: Propidium Iodide Flow Cytometry Kit from Abcam was used to perform cell cycle analysis using propidium iodide staining according to manufacturer's protocol.

[5] = JIB04 150 nM and 500 nM, FIG. 7A

CC(C)c1c(-c2ccccc2)[nH]c2c(C#N)cnn2c1=O [CPI-455]
OCI-Ly1 cell viability, Jumonji-inhibitors (OCI-Ly1): only JIB04 decreased OCI-Ly1 cell viability significantly

CCOC(=O)CCNc1cc(N2CCc3ccccc3CC2)nc(-c2ccccn2)n1 [GSK-J4]
OCI-Ly1 cell viability, Jumonji-inhibitors (OCI-Ly1): only JIB04 decreased OCI-Ly1 cell viability significantly

Clc1ccc(N/N=C(\c2ccccc2)c2ccccn2)nc1 [JIB04, 5-Chloro-2-[(E)-2-[phenyl(pyridin-2-yl)methylidene]hydrazin-1-yl]pyridine]
levels of Ikaros family members [1]: downregulates levels of members of Ikaros family, such as IKZF1 and IKZF3
CDKN1A expression (OCI-Ly1 cell lines; FIGS. 7B and 7C): significantly upregulated
downregulated pathways (GSEA) (OCI-Ly1 cell lines; [5]): downregulation of “E2F targets” and “Myc-targets”
upregulated pathways (GSEA) (OCI-Ly1 cell lines; [5]): upregulation of “apoptosis” and “p53”-pathways
production of cleaved PARP (PARP): increased production of cleaved PARP
survival (Ly1 cells [2]): increased survival as compared to vehicle treated mice
canonical Wnt signaling (canonical Wnt signaling): inhibits canonical Wnt signaling
EC50 (SUDHL5): < 250 nM
EC50 (MV4-11): ~1000 nM
EC50 (Toledo): < 250 nM
EC50 (DB): < 250 nM
EC50 (HL-60): ~1000 nM
EC50 (Farage): < 250 nM
EC50 (Jurkat): ~1000 nM
EC50 (THP-1): ~1000 nM
annexin-V positive cells (lymphoma cell lines): increase in annexin-V positive cells in a dose-dependent manner
sensitivity of GCB and ABC type DLBCL lines (DLBCL cell lines; GCB and ABC type DLBCL): both of those lines are sensitive to JIB04
tumor burden (Ly1 cells [3]): reduction in tumor burden within a short window of treatment
EC50 (OCI-Ly1; Homo sapiens, 48 h, OCI-Ly1 (DLBCL), 2 days treatment, FIG. 2): < 250 nM
OCI-Ly1 cell viability, Jumonji-inhibitors (OCI-Ly1): decreased OCI-Ly1 cell viability significantly
JIB04 potency (CTG signal relative to DMSO) when combined with Ibrutinib (OCI-Ly1; combined with Ibrutinib, compared to JIB04 alone, FIG. 16): increased
reduction of CTG signal, E isomer versus Z isomer (OCI-Ly1; trans configuration (E isomer) relative to cis configuration (Z isomer), FIG. 13): more is effective at reducing CTG signal relative to the cis configuration (Z isomer)
cell cycle [4]: cell cycle arrest

CCOC(=O)c1ccnc(CNCC(=O)N(CC)CCN(C)C)c1 [KDM5-C70]
OCI-Ly1 cell viability, Jumonji-inhibitors (OCI-Ly1): only JIB04 decreased OCI-Ly1 cell viability significantly

CN(C)CCCNC(=O)c1ccc(-c2cc(O)c3ncccc3c2)cc1 [ML324]
OCI-Ly1 cell viability, Jumonji-inhibitors (OCI-Ly1): only JIB04 decreased OCI-Ly1 cell viability significantly

O=[N+]([O-])c1cc([N+](=O)[O-])c(/C=C/c2ccc(Cl)c(Cl)c2)cc1/C=C/c1ccc(Cl)c(Cl)c1 [NSC636819]
OCI-Ly1 cell viability, Jumonji-inhibitors (OCI-Ly1): only JIB04 decreased OCI-Ly1 cell viability significantly

Cc1cc(/C=C/c2ccc3cc(N(C)C)ccc3[n+]2C)c(C)n1-c1ccccc1 [Pyrvinium]
sensitivity of DLBCL cell lines (DLBCL cell lines; FIG. 22): sensitive to Pyrvinium
